Source: PMC12349723, “Computationally accelerated identification of P-glycoprotein inhibitors” (PLOS One, 2025)

Columns and labels:
[1] = molecular target: T1, P-gp (Homo sapiens, UniProt P08183); assay: Top Hit classification from combined in vitro criteria; conditions: reverse MDR, do not increase PTX toxicity in chemo-sensitive cancer cells, non-toxic to noncancerous cells, not P-gp substrates
T1 construct: The MDR, P-gp overexpressing DU145-TXR cells were maintained under positive selection pressure; endogenous in cells; host or cells: DU145-TXR (paclitaxel-resistant sub-line of DU145 human prostate cancer cells)

[2] = Resazurin cell viability pre-screen in DU145-TXR cells with or without PTX; format: cell-based; conditions: human, mean of two experiments in triplicate, read-out: Viability, 15 µM compound alone
Protocol: Culture of the DU145, DU145-TXR, and HFL1 cell lines was performed as described in [8]. Culture of the A2780 and A2780-ADR cell lines was performed as described in [9]. MTT assays were performed as described in [8] with minor modifications. LC-MS/MS accumulation assays were performed as described in {Nanayakkara, 2018 #173} [9] with some modifications. […] The inhibitor concentration was lowered to 15 µM here, as the goal of the study was to identify compounds that were effective in reversing MDR at low concentrations, and to determine if the expanded virtual-assisted methods improved on our first-draft attempt. Compounds 56–98 were pre-screened using Resazurin cell viability assays: cells were incubated with 15 µM compound with or without 500 nM PTX for 48 hours, after which cell survival was assessed similar to [39]. Data represent the mean of two separate experiments, with n = 3 samples per experiment (n = 6 total) (S4 Table). The top performing compounds from this initial screen were re-tested with MTT viability assays against DU145-TXR cells, as described below.
S4 Table. Pre-screening of compounds 56 – 98 against DU145-TXR cells with resazurin assays. DU145-TXR cells were incubated with 15 µM compound with or without 500nM PTX for 48 hrs; survival was subsequently determined with the Resazurin viability assay ^[37]. […] Percent re-sensitization is defined as the percent change in viability between cells treated with compound and PTX, versus cells treated with PTX alone. In some instances, the assay reported an increase in viability with compound + PTX, and no percent sensitization is reported. ‘Follow-up Testing’ compounds were re-assessed with MTT assays (Figure 1). Compounds 59 and 89 (*, ‘Follow-up Testing’) were used as negative controls in follow-up MTT assays to test for consistency of results, e.g. to confirm that molecules eliminated in Resazurin assays were justifiably eliminated from later screening with MTT assays.

[3] = SWISS-ADME computational analysis of chemical properties; conditions: predicted aqueous solubility compared to that observed in the laboratory
Source text: Identifying P-gp inhibitors that are not transport substrates remains inherently challenging. To that end, computational tools such as the SWISS-ADME server attempt to use a molecule’s unique chemical and structural characteristics to predict whether it is likely to be a P-gp transport substrate. Our LC-MS/MS assays allowed us to retroactively test the validity of predictions from SWISS-ADME. […] Alternative identifiers for the molecules identified in this study are shown in S7 Table.
S1 Table. Known P-gp Inhibitors and Predicted Chemical Properties. A non-exhaustive list of known P-gp inhibitors and their selected chemical properties ^[64, 65]. Clinical trial outcomes were adapted from ^[10, 11]. Compounds were evaluated using the SWISS-ADME server ^[54]. […] “Predicted P-gp Substrate” - predicted by SWISS-ADME to be a transport substrate of P-gp. “Known P-gp Substrate” – In addition to being P-gp inhibitors, these molecules are: known transport substrates of P-gp, known non-transport substrates of P-gp, unknown whether it is a transport substrate of P-gp ^[66-68]. If the molecule is designated in a specific generation of P-gp inhibitors - First Generation P-gp inhibitors, Second generation P-gp inhibitors, Third generation P-gp inhibitors.

[4] = molecular target: T1, P-gp; assay: LC-MS/MS intracellular accumulation assay with or without tariquidar (P-gp transport substrate test) in DU145-TXR cells; format: in vitro ADME
Protocol: DU145-TXR cells were seeded at 350,000 cells per well in 6-well plates in complete RPMI medium. […] A full sample of DAU was also prepared for quantitative analysis. […] Media was removed with a glass vacuum aspirator. Cells were re-suspended and washed in 2mL of ice-cold Hank’s Balanced Salt Solution (HBSS, Gibco), and spun again at 2400 rpm. Cell lysates were diluted in 600 µL of ice-cold HBSS, flash-frozen in liquid nitrogen, and stored at −80 °C until analysis. LC-MS/MS intracellular accumulation assays were performed in collaboration with the Pharmacology Core at the University of Texas Southwestern Medical Center (UTSW). […] This method allowed us to quantify the change – if any – in the relative amount of compound present in the samples when TQR was added. An increase in the relative amount of compound indicates enhanced intracellular retention that compound. […] The “Internal Standard” (IS) is a known substance added in a constant amount to each sample. The “Peak Area”, expressed as “counts”, describes the number of MS/MS spectra from the experimental compound and serves as a measure of its relative abundance. […] These values allow a comparison of the relative abundance of compound between the “- TQR” and “+ TQR” samples, and to test for statistically significant differences. LC-MS/MS quantification was performed as follows. Cell lysate was aliquoted into Eppendorf tubes. In contrast to [9], blank cell lysates were not spiked with varying concentrations of each compound to create a standard curve, since compound amounts were normalized to abundance of the internal standard. […] The supernatant was then transferred to an HPCL vial, and subsequently analyzed using LC-MS/MS using a Sciex 4000QTRAP mass spectrometer coupled to a Shimadzu Prominence LC. […] The column flow rate was 1.5 ml/min using an Agilent C18 XDB, 5 micron packing 50 × 4.6 mm column. […] A BSA standard curve was then prepared in water and mixed using the same ratio. […] The ratio of Analyte to Internal Standard was normalized to the lysate content for each individual sample. […] Statistical significance was determined using a Student’s T Test in GraphPad Prism. We aimed to identify P-gp inhibitors that are not transport substrates of the pump itself. […] To test these predictions in vitro, liquid chromatography with tandem mass spectrometry (LC-MS/MS) was used to assess the intracellular accumulation of experimental compounds as described in [9]. […] The relative intracellular accumulation of each experimental compound was then assessed using LC-MS/MS. […] The P-gp substrate and chemotherapeutic daunorubicin (DAU) was used as a positive control for P-gp-mediated transport.

[5] = system: HFL1 (human lung fibroblast) cell line; assay: MTT viability assay, inherent toxicity in non-cancerous HFL1 cells; format: cell-based; conditions: HFL1 cells, compound alone, mean of 8 samples
Protocol: The chemotherapeutic sensitive DU145 human prostate cancer cells and the multidrug resistant sub-line, DU145-TXR, were generous gifts from Dr. Evan Keller (University of Michigan, Ann Arbor, MI). The MDR, P-gp overexpressing DU145-TXR cells were maintained under positive selection pressure by supplementing complete medium with 10 nM paclitaxel (Acros Organics, NJ). […] The MDR, P-gp overexpressing A2780-ADR cell line was maintained under positive selection pressure by supplementing complete medium with 100 nM doxorubicin (Fisher Scientific, NJ). The non-cancerous HFL1 (human lung fibroblast) cell line cell line was a generous gift from Dr. Robert Harrod (Southern Methodist University, Dallas, TX) and was maintained in complete F12K media consisting of F12K with 10% fetal bovine serum, 100 U/mL penicillin, and 100 µg/mL streptomycin (Gibco). Flasks and 96 well plates that were used with the non-cancerous line HFL1 were pre-treated with 0.1 mg/ml Collagen Type 1 (Gibco) and rinsed with PBS (Fisher).
MTT assays measure the reduction of yellow, water soluble 3-(4,5-dimethylthiazol-2-yl)-2,5-diphenyltetrazolium bromide (MTT) to blue, insoluble formazan crystals by cellular reductase processes in living cells. Cells were trypsinized from monolayers and seeded in complete medium in 96 well plates. Cancerous cell lines (DU145, DU145-TXR, A2780, A2780-ADR) were seeded at 3,000 cells per well in complete RPMI medium. The non-cancerous HFL1 line was seeded at 4,000 cells per well in complete F12K medium, in collagen-treated plates (Collagen Type 1, Gibco). Cells were incubated with experimental compounds for 48 hours at 37 °C and 5% CO2 in a humidified incubator. At 48 hours, MTT was added (20 µL/well of 5 mg/mL MTT in PBS) to each well. After incubation for 4 hours, the media was removed, and the formazan crystals were dissolved in 100 µL DMSO per well. Plates containing the semi-adherent A2780 or A2780-ADR lines were spun at 1400 rpm for 3 minutes prior to aspiration of media, and the addition of DMSO. Plates were shaken for 10 minutes at 500 rpm on an Orbital shaker (LabDoctor from MidSci, St Louis, MO). The absorbance was measured at 570 nm using a Bio-Tek Cytation 5 (Bio-Tek, Winooski, VT). The measured absorbance value was correlated with the number of metabolically active cells in that well, corrected for absorbance of media. The percent of cell viability (termed ‘survival’ here) was calculated as a percentage of survival of the control condition, which refers to vehicle-treated (DMSO as vehicle) cells, or vehicle-and-chemotherapeutic-treated cells, if testing a compound’s ability to re-sensitize cells to a chemotherapeutic. Percent survival was calculated using the following equation:
% Survival=100 × absorbance of experimental cells/mean absorbance of control treated cells
For DU145-TXR, DU145, HFL1 and A2780 cells – data are the mean ± one standard deviation, 8 samples per compound, from at least two independent trials per compound. […] For A2780-ADR cells, data are the mean ± one standard deviation with 12 samples per compound, from at least two independent trials per compound.
If a P-gp inhibitor is intrinsically toxic to non-cancerous cells, it is more likely to be participating in undesirable off-target interactions. The top compounds from the screens shown above were screened for inherent toxicity using the non-cancerous HFL1 (human lung fibroblast) cell line. HFL1 cells were incubated with 15 µM compound for 48 hours, after which cell viability was assessed using MTT cell viability assays. A 20% reduction in cell viability (compared to DMSO-treated cells) was considered the maximum acceptable toxicity (see dotted line). The chemotherapeutic daunorubicin was included as a positive control for toxicity.
The top compounds from previous screens were tested against the non-cancerous HFL1 cell line.

[6] = system: DU145-TXR cells; conditions: cited from earlier work
[7] = system: DU145 cells; set-up: method as in PMID 26516582; conditions: ref [8]; cited from earlier work
[8] = system: P-gp; set-up: method as in earlier work; conditions: ref [66-68]; cited from earlier work
[9] = DU145-TXR, 5 µM compound, 2.5 h, with 500 nM tariquidar, mean ± SD, triplicate
[10] = DU145-TXR, 5 µM compound, 2.5 h, without tariquidar, mean ± SD, triplicate
[11] = significant difference = likely P-gp transport substrate

T1 sequence (P08183 whole entry): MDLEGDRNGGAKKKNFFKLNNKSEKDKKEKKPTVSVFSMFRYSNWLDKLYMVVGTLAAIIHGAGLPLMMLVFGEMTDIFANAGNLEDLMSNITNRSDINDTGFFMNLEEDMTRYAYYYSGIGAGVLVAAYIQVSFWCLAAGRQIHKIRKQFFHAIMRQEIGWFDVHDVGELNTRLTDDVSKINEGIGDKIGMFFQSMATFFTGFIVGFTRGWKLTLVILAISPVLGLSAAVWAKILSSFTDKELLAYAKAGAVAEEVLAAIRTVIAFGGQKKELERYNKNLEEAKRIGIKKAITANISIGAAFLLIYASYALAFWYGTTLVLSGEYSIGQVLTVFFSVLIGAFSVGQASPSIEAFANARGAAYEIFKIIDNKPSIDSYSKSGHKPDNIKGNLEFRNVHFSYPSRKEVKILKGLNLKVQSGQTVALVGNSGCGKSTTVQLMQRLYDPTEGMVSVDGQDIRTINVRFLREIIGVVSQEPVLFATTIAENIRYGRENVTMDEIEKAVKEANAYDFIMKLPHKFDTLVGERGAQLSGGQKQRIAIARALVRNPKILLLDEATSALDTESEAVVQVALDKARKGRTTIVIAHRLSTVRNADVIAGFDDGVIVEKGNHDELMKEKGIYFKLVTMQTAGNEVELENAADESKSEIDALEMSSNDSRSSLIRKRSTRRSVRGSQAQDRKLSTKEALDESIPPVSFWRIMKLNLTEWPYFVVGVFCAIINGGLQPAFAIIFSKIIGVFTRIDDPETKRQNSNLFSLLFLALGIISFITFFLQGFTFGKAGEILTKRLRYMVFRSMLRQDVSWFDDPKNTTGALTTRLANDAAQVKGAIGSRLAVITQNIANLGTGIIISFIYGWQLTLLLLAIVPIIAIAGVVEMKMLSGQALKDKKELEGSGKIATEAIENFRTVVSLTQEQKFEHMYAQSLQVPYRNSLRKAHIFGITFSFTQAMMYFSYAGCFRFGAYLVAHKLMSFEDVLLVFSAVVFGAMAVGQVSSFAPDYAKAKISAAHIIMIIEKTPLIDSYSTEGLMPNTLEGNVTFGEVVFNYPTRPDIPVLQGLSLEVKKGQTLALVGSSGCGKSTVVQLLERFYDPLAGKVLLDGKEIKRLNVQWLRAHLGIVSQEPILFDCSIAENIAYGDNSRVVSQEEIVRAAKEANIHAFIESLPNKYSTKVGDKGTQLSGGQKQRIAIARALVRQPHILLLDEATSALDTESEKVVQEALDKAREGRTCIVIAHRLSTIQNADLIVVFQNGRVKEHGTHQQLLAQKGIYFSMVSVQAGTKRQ

Cc1cccc(C2CC(=O)c3cnn(-c4nc5ccccc5[nH]4)c3C2)c1 (stereo not shown) [Compound 79, Cc1cccc(c1)C1Cc2c(cnn2-c2nc3ccccc3[nH]2)C(=O)C1]
Top Hit [1]: No
viability at 48 h, 15 µM [2]: 89.9%
Correct Water Solubility Prediction? [3]: Yes

COc1cccc2c1C(=O)c1c(O)c3c(c(O)c1C2=O)C[C@@](O)(C(C)=O)C[C@@H]3O[C@H]1C[C@H](N)[C@H](O)[C@H](C)O1 [Daunorubicin, reference compound]
Intracellular accumulation (normalized ratio of compound to internal standard), Trial 1, + TQR [4, 9]: 0.216 ± 0.002
Intracellular accumulation (normalized ratio of compound to internal standard), Trial 2, + TQR [4, 9]: 0.232 ± 0.016
Intracellular accumulation (normalized ratio of compound to internal standard), Trial 1, - TQR [4, 10]: 0.014 ± 0.001
Intracellular accumulation (normalized ratio of compound to internal standard), Trial 2, - TQR [4, 10]: 0.017 ± 0.001
P (- TQR vs + TQR), Trial 2 ([4]; Student's T test of the mean): 2x10^-5
P (- TQR vs + TQR), Trial 1 ([4]; Student's T test of the mean, listed as DAU): < 1x10^-6
Significance of accumulation with tariquidar, Trial 1 [4, 11]: **** (P < 0.0001 = ****)
Significance of accumulation with tariquidar, Trial 2 [4, 11]: **** (P < 0.0001 = ****)
Mean % Survival [5]: 18.1%

CC(=O)O[C@H]1C(=O)[C@@]2(C)[C@H]([C@H](OC(=O)c3ccccc3)[C@]3(O)C[C@H](OC(=O)[C@H](O)[C@@H](NC(=O)c4ccccc4)c4ccccc4)C(C)=C1C3(C)C)[C@]1(OC(C)=O)CO[C@@H]1C[C@@H]2O [Paclitaxel, paclitaxel]
Survival of DU145-TXR cells at 500 nmol/L PTX ([6]; 500 nmol/L PTX, ref [8]): greater than 85%
Increase in the IC50 of PTX in DU145-TXR relative to DU145 cells ([6]; DU145-TXR vs DU145 parental cells, ref [38]): 34 fold
Survival of DU145 parental cells at 500 nmol/L PTX [7]: less than 10%

C=C[C@H]1C[N@@]2CC[C@H]1C[C@@H]2[C@@H](O)c1ccnc2ccc(OC)cc12 [Quinidine]
P-gp Substrate? (known transport substrate of P-gp) [8]: Yes

COC(=O)[C@H]1[C@H]2C[C@@H]3c4[nH]c5cc(OC)ccc5c4CCN3C[C@H]2C[C@@H](OC(=O)c2cc(OC)c(OC)c(OC)c2)[C@@H]1OC [Reserpine]
P-gp Substrate? (known transport substrate of P-gp) [8]: No

C/C=C/C[C@@H](C)C(=O)[C@H]1C(=O)N[C@@H](C(C)C)C(=O)N(C)CC(=O)N(C)[C@@H](CC(C)C)C(=O)N[C@@H](C(C)C)C(=O)N(C)[C@@H](CC(C)C)C(=O)N[C@@H](C)C(=O)N[C@H](C)C(=O)N(C)[C@@H](CC(C)C)C(=O)N(C)[C@@H](CC(C)C)C(=O)N(C)[C@@H](C(C)C)C(=O)N1C [Valspodar]
P-gp Substrate? (known transport substrate of P-gp) [8]: No

O[C@@H](COc1cccc2ncccc12)CN1CCN([C@@H]2c3ccccc3[C@@H]3[C@H](c4ccccc42)C3(F)F)CC1 [Zosuquidar]
P-gp Substrate? (known transport substrate of P-gp) [8]: Yes
